Assay results as given in ChEMBL document CHEMBL3751752, “Total synthesis of a biotinylated rocaglate: Selective targeting of the translation factors eIF4AI/II” (Bioorg Med Chem Lett, 2016).
Activity calls are given as the source filed them. The rule behind the calls is not given here.

Key:
[1] = target: Eukaryotic initiation factor 4A-III (Mus musculus) (UniProt Q91VC3); test: Binding affinity to eIF4A3 in mouse embryonic fibroblasts by Western blot method
[2] = target: Eukaryotic translation initiation factor 4E (Mus musculus) (UniProt P63073); test: Binding affinity to eIF4E in mouse embryonic fibroblasts by Western blot method
[3] = target: Eukaryotic initiation factor 4A-II (Mus musculus) (UniProt P10630); test: Binding affinity to eIF4A2 in mouse embryonic fibroblasts at 20 uM by streptavidin pulldown assay
[4] = target: ATP-dependent RNA helicase DDX3X (Mus musculus) (UniProt Q62167); test: Binding affinity to DDX3 in mouse embryonic fibroblasts by Western blot method
[5] = target: T1, Prohibitin 1 (Mus musculus) (UniProt P67778); test: Binding affinity to prohibitin in mouse embryonic fibroblasts by Western blot method
T1 sequence (whole entry): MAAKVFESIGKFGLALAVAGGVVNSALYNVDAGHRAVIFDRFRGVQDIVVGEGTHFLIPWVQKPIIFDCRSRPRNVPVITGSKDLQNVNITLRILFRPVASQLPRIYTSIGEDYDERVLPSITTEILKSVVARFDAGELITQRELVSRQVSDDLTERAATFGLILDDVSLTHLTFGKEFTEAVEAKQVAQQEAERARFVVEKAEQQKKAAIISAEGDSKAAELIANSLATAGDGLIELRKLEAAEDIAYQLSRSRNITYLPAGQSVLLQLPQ

[6] = target: Eukaryotic initiation factor 4A-II (Mus musculus) (UniProt P10630); test: Binding affinity to eIF4A2 in mouse embryonic fibroblasts by Western blot method
[7] = target: Eukaryotic initiation factor 4A-I (Mus musculus) (UniProt P60843); test: Binding affinity to eIF4A1 in mouse embryonic fibroblasts by Western blot method
[8] = target: Eukaryotic initiation factor 4A-I (Mus musculus) (UniProt P60843); test: Binding affinity to eIF4A1 in mouse embryonic fibroblasts at 20 uM by streptavidin pulldown assay
[9] = target: Eukaryotic initiation factor 4A-I (Homo sapiens) (UniProt P60842); test: Inhibition of e1F4A1 (unknown origin) in rabbit reticulocyte assessed as capped-dependent translation incubated for 1 hr by dual glo luciferase assay
Sequence of Eukaryotic initiation factor 4A-I (Homo sapiens) (P60842 whole entry): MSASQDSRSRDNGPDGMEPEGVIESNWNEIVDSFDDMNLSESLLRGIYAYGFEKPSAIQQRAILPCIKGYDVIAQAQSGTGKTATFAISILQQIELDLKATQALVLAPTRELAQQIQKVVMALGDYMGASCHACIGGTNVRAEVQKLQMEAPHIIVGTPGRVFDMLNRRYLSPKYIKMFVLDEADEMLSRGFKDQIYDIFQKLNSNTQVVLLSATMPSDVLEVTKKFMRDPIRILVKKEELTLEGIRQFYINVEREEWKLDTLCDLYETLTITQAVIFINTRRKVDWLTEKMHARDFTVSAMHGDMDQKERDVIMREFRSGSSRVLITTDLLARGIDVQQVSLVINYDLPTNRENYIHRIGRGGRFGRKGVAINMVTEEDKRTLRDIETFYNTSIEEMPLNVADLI

Sequence of Eukaryotic initiation factor 4A-I (Mus musculus) (P60843 whole entry): as the sequence (P60842 whole entry) above
Sequence of Eukaryotic initiation factor 4A-II (Mus musculus) (P10630 whole entry): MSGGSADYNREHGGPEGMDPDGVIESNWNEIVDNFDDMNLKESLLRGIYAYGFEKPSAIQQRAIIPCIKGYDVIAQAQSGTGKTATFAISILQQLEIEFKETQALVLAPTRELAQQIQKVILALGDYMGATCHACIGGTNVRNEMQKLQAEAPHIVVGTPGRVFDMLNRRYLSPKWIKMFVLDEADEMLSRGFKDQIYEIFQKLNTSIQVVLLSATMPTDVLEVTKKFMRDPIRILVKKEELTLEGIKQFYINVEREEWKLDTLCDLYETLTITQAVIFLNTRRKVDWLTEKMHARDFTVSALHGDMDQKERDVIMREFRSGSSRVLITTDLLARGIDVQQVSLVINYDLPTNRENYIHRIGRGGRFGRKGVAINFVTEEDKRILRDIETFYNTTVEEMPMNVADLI
Sequence of Eukaryotic initiation factor 4A-III (Mus musculus) (Q91VC3 whole entry): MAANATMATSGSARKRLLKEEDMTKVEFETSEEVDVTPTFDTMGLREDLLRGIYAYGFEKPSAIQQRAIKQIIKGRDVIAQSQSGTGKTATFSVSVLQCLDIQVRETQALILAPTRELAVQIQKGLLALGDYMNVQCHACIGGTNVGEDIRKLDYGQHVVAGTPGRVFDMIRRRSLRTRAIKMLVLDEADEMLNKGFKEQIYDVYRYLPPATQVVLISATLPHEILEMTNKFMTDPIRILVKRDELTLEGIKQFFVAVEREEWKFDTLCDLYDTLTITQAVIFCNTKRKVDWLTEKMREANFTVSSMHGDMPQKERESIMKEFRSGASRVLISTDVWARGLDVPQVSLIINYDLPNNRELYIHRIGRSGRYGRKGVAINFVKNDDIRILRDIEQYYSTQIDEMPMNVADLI
Sequence of ATP-dependent RNA helicase DDX3X (Mus musculus) (Q62167 whole entry): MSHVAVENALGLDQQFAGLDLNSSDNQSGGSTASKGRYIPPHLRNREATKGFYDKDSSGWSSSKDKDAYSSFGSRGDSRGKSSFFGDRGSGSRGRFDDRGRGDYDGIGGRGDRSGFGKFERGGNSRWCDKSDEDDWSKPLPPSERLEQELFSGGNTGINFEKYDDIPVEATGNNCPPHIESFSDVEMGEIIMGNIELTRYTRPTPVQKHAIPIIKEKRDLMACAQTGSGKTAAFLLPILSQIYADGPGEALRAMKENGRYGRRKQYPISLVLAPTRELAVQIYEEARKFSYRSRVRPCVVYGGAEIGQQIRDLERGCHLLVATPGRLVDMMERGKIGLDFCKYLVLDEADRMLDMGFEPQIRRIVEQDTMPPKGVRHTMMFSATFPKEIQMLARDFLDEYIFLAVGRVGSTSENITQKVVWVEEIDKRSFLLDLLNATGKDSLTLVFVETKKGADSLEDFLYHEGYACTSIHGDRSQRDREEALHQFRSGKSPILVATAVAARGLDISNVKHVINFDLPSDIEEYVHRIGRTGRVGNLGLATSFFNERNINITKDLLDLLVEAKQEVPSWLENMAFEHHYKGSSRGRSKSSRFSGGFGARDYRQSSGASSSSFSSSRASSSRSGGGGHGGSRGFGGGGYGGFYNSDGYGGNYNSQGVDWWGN
Sequence of Eukaryotic translation initiation factor 4E (Mus musculus) (P63073 whole entry): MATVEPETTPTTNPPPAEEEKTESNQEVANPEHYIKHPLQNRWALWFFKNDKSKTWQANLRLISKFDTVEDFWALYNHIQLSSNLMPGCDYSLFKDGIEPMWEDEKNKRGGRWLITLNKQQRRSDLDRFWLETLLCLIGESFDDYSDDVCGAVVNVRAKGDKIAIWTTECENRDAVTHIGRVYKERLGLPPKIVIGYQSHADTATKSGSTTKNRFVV

In the case of `COc1ccc([C@@]23Oc4cc(OC)cc(OC)c4[C@]2(O)[C@H](O)[C@H](C(=O)NCc2cn(CCCOCCOCCOCCCNC(=O)CCCC[C@@H]4SC[C@@H]5NC(=O)N[C@@H]54)nn2)[C@H]3c2ccccc2)cc1`, the Activity [1] is reported as “inactive”, the Activity [2] is reported as “inactive” and the Activity [3] is reported as “Active”. For the same compound, the Activity [4] was “inactive”, the Activity [5] was “inactive” and the Activity [6] was “Active”. The Activity [7] was “Active”, the Activity [8] was “Active” and the inhibition [9] was “Active”.

For `COc1ccc([C@@]23Oc4cc(OC)cc(OC)c4[C@]2(O)[C@H](O)[C@H](C(=O)O)[C@H]3c2ccccc2)cc1`, the inhibition [9] was “Active”.

With `COC(=O)[C@H]1[C@@H](O)[C@@]2(O)c3c(OC)cc(OC)cc3O[C@@]2(c2ccc(OC)cc2)[C@@H]1c1ccccc1` the Activity [3] was “Active”, the Activity [8] was “Active” and the inhibition [9] was “Active”.

With `COc1ccc([C@@]23Oc4cc(OC)cc(OC)c4[C@]2(O)[C@H](O)[C@H](C(=O)N(C)C)[C@H]3c2ccccc2)cc1` the Activity [3] was “Active” and the Activity [8] was “Active”.

In the case of `COc1ccc([C@@]23Oc4cc(O[C@@H]5O[C@@H]([C@@H](O)CO)CO[C@H]5OC)cc(OC)c4[C@]2(O)[C@H](O)[C@H](C(=O)NCc2cn(CCCOCCOCCOCCCNC(=O)CCCC[C@@H]4SC[C@@H]5NC(=O)N[C@@H]54)nn2)[C@H]3c2ccccc2)cc1`, the Activity [1] is reported as “inactive”, the Activity [2] is reported as “inactive” and the Activity [3] is reported as “Active”. For the same compound, the Activity [4] was “inactive”, the Activity [5] was “inactive” and the Activity [6] was “Active”. For the same compound, the Activity [7] was “Active” and the Activity [8] was “Active”.

With `O=C(O)CCCC[C@@H]1SC[C@@H]2NC(=O)N[C@@H]21` the Activity [3] was “inactive” and the Activity [8] was “inactive”.

With `C#CCNC(=O)[C@H]1[C@@H](O)[C@@]2(O)c3c(OC)cc(OC)cc3O[C@@]2(c2ccc(OC)cc2)[C@@H]1c1ccccc1` the inhibition [9] was “Active”.

For `COC(=O)[C@H]1[C@@H](O)[C@@]2(O)c3c(OC)cc(O[C@@H]4O[C@@H]([C@@H](O)CO)CO[C@H]4OC)cc3O[C@@]2(c2ccc(OC)cc2)[C@@H]1c1ccccc1`, the Activity [3] was “Active”, the Activity [8] was “Active” and the inhibition [9] was “Active”.
